Several values for one entry are separate records, joined by “and”; a condition that tells them apart may be missing. Equal values may be shown once. Inconclusive results are not listed. The calls were made as follows: active = survival T/C of 150% or more; inactive = T/C below 125% in these data.
System: Madison 109 lung carcinoma i.m., mice, median survival
Experiment: NCI In Vivo Anticancer Drug Screen. Data for tumor model Madison 109 Lung Carcinoma (intramuscular) in unknown mice
Details: endpoint: median survival time, higher = longer survival
Description: The antitumor activity of compounds was measured in mice bearing transplantable tumors. Survival or tumor size were measured and the results are expressed as the measurement made in the treated group (T) divided by the measurement made in the vehicle treated control group (C). The tumor model used in this assay is Madison 109 Lung Carcinoma (intramuscular) in unknown mice

[1] = dose: 25.0 mg/kg/injection, schedule: Q01DX009 (ip), vehicle: water
[2] = dose: 50.0 mg/kg/injection, schedule: Q01DX009 (ip), vehicle: water
[3] = dose: 10.0 mg/kg/injection, schedule: Q02DX009 (ip), vehicle: water
[4] = dose: 20.0 mg/kg/injection, schedule: Q02DX009 (ip), vehicle: water
[5] = dose: 80.0 mg/kg/injection, schedule: Q02DX009 (ip), vehicle: water
[6] = dose: 5.0 mg/kg/injection, schedule: Q01DX001 (ip), vehicle: saline
[7] = dose: 8.4 mg/kg/injection, schedule: Q01DX001 (ip), vehicle: saline
[8] = dose: 14.0 mg/kg/injection, schedule: Q01DX001 (ip), vehicle: saline

Measured: T/C

C/C(=N/N=C(N)N)c1ccc(NC(=O)Nc2ccc(/C(C)=N/N=C(N)N)cc2)cc1
inactive: [1] 115 % of control | [2] 106 % of control

O=[N+]([O-])c1cccc([N+](=O)[O-])c1Cl
inactive: [3] 105 % of control | [4] 113 % of control | [5] 122 % of control | dose: 160.0 mg/kg/injection, schedule: Q02DX009 (ip), vehicle: water 112 % of control and 103 % of control

Cc1c(N)nc([C@H](CC(N)=O)NC[C@H](N)C(N)=O)nc1C(=O)N[C@H](C(=O)N[C@H](C)[C@@H](O)[C@H](C)C(=O)N[C@H](C(=O)NCCc1nc(-c2nc(C(=O)NCCC[S+](C)C)cs2)cs1)[C@@H](C)O)C(OC1OC(CO)C(O)C(O)C1OC1OC(CO)C(O)C(OC(N)=O)C1O)c1cnc[nH]1 (stereo not given in full)
inactive: dose: 2.5 mg/kg/injection, schedule: Q04DX003 (ip), vehicle: saline 120 % of control | dose: 5.0 mg/kg/injection, schedule: Q04DX003 (ip), vehicle: saline 123 % of control | dose: 20.0 mg/kg/injection, schedule: Q04DX003 (ip), vehicle: saline 108 % of control | dose: 30.0 mg/kg/injection, schedule: Q04DX003 (ip), vehicle: saline 100 % of control

S=P(N1CC1)(N1CC1)N1CC1
inactive: dose: 1.5 mg/kg/injection, schedule: Q01DX009 (ip), vehicle: water 110 % of control | dose: 2.5 mg/kg/injection, schedule: Q01DX009 (ip), vehicle: water 101 % of control | dose: 3.0 mg/kg/injection, schedule: Q01DX009 (ip), vehicle: water 92 % of control | dose: 5.0 mg/kg/injection, schedule: Q01DX009 (ip), vehicle: water 109 % of control | dose: 6.0 mg/kg/injection, schedule: Q01DX009 (ip), vehicle: water 105 % of control | dose: 10.0 mg/kg/injection, schedule: Q01DX009 (ip), vehicle: water 107 % of control | dose: 40.0 mg/kg/injection, schedule: Q01DX009 (ip), vehicle: water 110 % of control

CC(=O)c1cccc(NC2C(N)C(NC(=O)N(C)C)(C(C)O)C(C)(O)C2(O)COC(=O)c2c(C)cccc2O)c1 (stereo not given)
inactive: dose: 0.05 mg/kg/injection, schedule: Q01DX009 (ip), vehicle: other 111 % of control | dose: 0.3 mg/kg/injection, schedule: Q01DX009 (ip), vehicle: other 96 % of control | dose: 0.6 mg/kg/injection, schedule: Q01DX009 (ip), vehicle: other 119 % of control

O=CC(NC(=O)N(CCCl)N=O)C(O)C(O)C(O)CO (stereo not given)
inactive: [6] 108 % of control | [7] 106 % of control | [8] 105 % of control | dose: 23.0 mg/kg/injection, schedule: Q01DX001 (ip), vehicle: saline 96 % of control

NC(C=O)C(O)C(O)C(O)CO (stereo not given)
inactive: dose: 400.0 mg/kg/injection, schedule: Q01DX009 (ip), vehicle: saline 98 % of control | dose: 800.0 mg/kg/injection, schedule: Q01DX009 (ip), vehicle: saline 93 % of control | dose: 1600.0 mg/kg/injection, schedule: Q01DX009 (ip), vehicle: saline 96 % of control | dose: 3200.0 mg/kg/injection, schedule: Q01DX009 (ip), vehicle: saline 110 % of control

COc1cccc2c1C(=O)c1c(O)c3c(c(O)c1C2=O)C[C@@](O)(C(=O)CO)C[C@@H]3OC1CC(N)C(O)C(C)O1 (stereo not given in full)
inactive: dose: 0.25 mg/kg/injection, schedule: Q01DX005 (ip), vehicle: water 102 % of control | dose: 0.4 mg/kg/injection, schedule: Q01DX009 (ip), vehicle: water 98 % of control | dose: 0.5 mg/kg/injection, schedule: Q01DX005 (ip), vehicle: water 119 % of control and 120 % of control | dose: 0.63 mg/kg/injection, schedule: Q04DX003 (ip), vehicle: water 104 % of control | dose: 0.8 mg/kg/injection, schedule: Q01DX009 (ip), vehicle: water 104 % of control | dose: 1.0 mg/kg/injection, schedule: Q01DX005 (ip), vehicle: water 120 % of control | dose: 1.2 mg/kg/injection, schedule: Q01DX009 (ip), vehicle: water 105 % of control | dose: 1.25 mg/kg/injection, schedule: Q04DX003 (ip), vehicle: water 96 % of control | dose: 1.6 mg/kg/injection, schedule: Q01DX009 (ip), vehicle: water 102 % of control | dose: 2.5 mg/kg/injection, schedule: Q01DX005 (ip), vehicle: water 36 % of control | dose: 2.5 mg/kg/injection, schedule: Q04DX003 (ip), vehicle: water 101 % of control

CSCS(=O)C[C@H](CO)NC(=O)/C=C/c1c(C)[nH]c(=O)[nH]c1=O (stereo not given in full)
inactive: dose: 0.02 mg/kg/injection, schedule: Q01DX009 (ip), vehicle: water 89 % of control | dose: 0.05 mg/kg/injection, schedule: Q01DX009 (ip), vehicle: water 97 % of control | dose: 0.1 mg/kg/injection, schedule: Q01DX009 (ip), vehicle: water 91 % of control | dose: 0.2 mg/kg/injection, schedule: Q01DX009 (ip), vehicle: water 94 % of control

C[C@]12C=CC(=O)C=C1CC[C@@H]1[C@@H]2C(=O)C[C@@]2(C)[C@H]1CC[C@]2(O)C(=O)CO
inactive: dose: 5.0 mg/kg/injection, schedule: Q01DX009 (ip), vehicle: saline 113 % of control | dose: 10.0 mg/kg/injection, schedule: Q01DX009 (ip), vehicle: saline 117 % of control | dose: 40.0 mg/kg/injection, schedule: Q01DX009 (ip), vehicle: saline 120 % of control

CN(C)c1nc(N(C)C)nc(N(C)C)n1
inactive: dose: 20.0 mg/kg/injection, schedule: Q01DX009 (ip), vehicle: other 89 % of control | dose: 40.0 mg/kg/injection, schedule: Q01DX009 (ip), vehicle: other 96 % of control

COC1=C(OC)C(=O)C(C/C=C(\C)CC/C=C(\C)CC/C=C(\C)CC/C=C(\C)CC/C=C(\C)CC/C=C(\C)CC/C=C(\C)CC/C=C(\C)CC/C=C(\C)CCC=C(C)C)=C(C)C1=O
inactive: dose: 1.0 mg/kg/injection, schedule: Q01DX009 (ip), vehicle: other 95 % of control | dose: 2.0 mg/kg/injection, schedule: Q01DX009 (ip), vehicle: other 97 % of control | dose: 4.0 mg/kg/injection, schedule: Q01DX009 (ip), vehicle: other 94 % of control | dose: 8.0 mg/kg/injection, schedule: Q01DX009 (ip), vehicle: other 94 % of control | dose: 16.0 mg/kg/injection, schedule: Q01DX009 (ip), vehicle: other 102 % of control

O=S(=O)(n1ccnc1)C(F)(F)F
inactive: [6] 98 % of control | [7] 88 % of control | [8] 92 % of control

O=C1OC(C(O)CO)C(O)=C1O (stereo not given)
inactive: dose: 400.0 mg/kg/injection, schedule: Q01DX009 (ip), vehicle: other 98 % of control | dose: 800.0 mg/kg/injection, schedule: Q01DX009 (ip), vehicle: other 96 % of control | dose: 1600.0 mg/kg/injection, schedule: Q01DX009 (ip), vehicle: other 98 % of control

O=C(O)c1c(Cl)c(Cl)c(Cl)c(Cl)c1-c1c2cc(I)c(=O)c(I)c-2oc2c(I)c(O)c(I)cc12
inactive: dose: 4.0 mg/kg/injection, schedule: Q01DX009 (ip), vehicle: water 90 % of control | dose: 8.0 mg/kg/injection, schedule: Q01DX009 (ip), vehicle: water 102 % of control | [1] 100 % of control | dose: 32.0 mg/kg/injection, schedule: Q01DX009 (ip), vehicle: water 107 % of control | [2] 106 % of control | dose: 64.0 mg/kg/injection, schedule: Q01DX009 (ip), vehicle: water 99 % of control

C1CN1c1nc(N2CC2)nc(N2CC2)n1
inactive: dose: 0.02 mg/kg/injection, schedule: Q01DX009 (ip), vehicle: saline 101 % of control | dose: 0.05 mg/kg/injection, schedule: Q01DX009 (ip), vehicle: saline 110 % of control | dose: 0.1 mg/kg/injection, schedule: Q01DX009 (ip), vehicle: saline 112 % of control | dose: 0.2 mg/kg/injection, schedule: Q01DX009 (ip), vehicle: saline 102 % of control

Nc1n[nH]c(N)n1
inactive: dose: 300.0 mg/kg/injection, schedule: Q01DX009 (ip), vehicle: water 118 % of control | dose: 500.0 mg/kg/injection, schedule: Q01DX009 (ip), vehicle: water 118 % of control | dose: 600.0 mg/kg/injection, schedule: Q01DX009 (ip), vehicle: water 100 % of control

O=[N+]([O-])c1ccc([N+](=O)[O-])c(Cl)c1
inactive: [3] 122 % of control | [4] 122 % of control | dose: 40.0 mg/kg/injection, schedule: Q02DX009 (ip), vehicle: water 122 % of control | [5] 90 % of control

NC(=O)c1ncn(C2OC(CO)C(O)C2O)n1 (stereo not given)
inactive: dose: 12.5 mg/kg/injection, schedule: Q01DX009 (ip), vehicle: water 103 % of control | [1] 100 % of control | [2] 109 % of control | dose: 100.0 mg/kg/injection, schedule: Q01DX009 (ip), vehicle: water 115 % of control

— PubChem BioAssay AID300 (DTP/NCI, 2004)
